From patent publication US6737383B1, “Herbicidal oxadiazolidines” (priority 1999, dated 2004)

Experiments:
sugar beet = assay: Test B pre/postemergence sugar beet; assay type: in vivo, Beta vulgaris; settings: for Sugarbeets plant response rating (0 to 10 scale): 0 is no effect
Method in brief: (§1)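 Test chemicals in a non-phytotoxic solvent mixture with surfactant were sprayed preemergence onto planted seeds and postemergence onto plants 2 to 18 cm tall (1- to 4-leaf stage). After twelve to sixteen days in a greenhouse, injury was visually rated against untreated controls from 0 (no effect) to 10 (complete control).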

corn = assay: Test B pre/postemergence corn; assay type: in vivo, Zea mays; settings: for Corn plant response rating (0 to 10 scale): 0 is no effect
Method in brief: as §1

rape = assay: Test B pre/postemergence rape; assay type: in vivo, Brassica napus; settings: for Rape plant response rating (0 to 10 scale): 0 is no effect
Method in brief: as §1

duck salad = assay: Test B flood test duck salad; assay type: in vivo, Heteranthera limosa
Method in brief: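 Each value is a visual injury score relative to controls, with 10 meaning complete control and 0 no effect. Evaluation took place twelve to sixteen days after the 2-leaf-stage plants were treated and kept in the greenhouse.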

[1] = Postemergence, Rate 125 g/ha, scale of 0 to 10 where 0 is no effect and 10 is complete control
[2] = Preemergence, Rate 62 g/ha, scale 0 to 10 (0 no effect, 10 complete control)
[3] = Preemergence, Rate 125 g/ha, 10 is complete control
[4] = Preemergence, Rate 250 g/ha, scale 0 to 10, 0 is no effect, 10 is complete control
[5] = Preemergence, Rate 500 g/ha, scale 0 to 10 (0 no effect, 10 complete control)
[6] = Rate 62 g/ha, Postemergence, scale of 0 to 10 where 0 is no effect and 10 is complete control
[7] = Rate 250 g/ha, Postemergence, scale 0 to 10, 0 is no effect, 10 is complete control
[8] = Rate 500 g/ha, Postemergence, scale 0 to 10
[9] = Postemergence, Rate 62 g/ha, scale 0 to 10, 0 is no effect, 10 is complete control
[10] = Postemergence, Rate 250 g/ha, scale 0 to 10, 0 no effect, 10 complete control
[11] = Preemergence, Rate 125 g/ha, scale 0 to 10 (0 no effect, 10 complete control)
[12] = Preemergence, Rate 250 g/ha, scale of 0 to 10 where 0 is no effect and 10 is complete control
[13] = Preemergence, Rate 500 g/ha, scale 0 (no effect) to 10 (complete control)
[14] = Rate 125 g/ha, Postemergence, scale 0 to 10, 0 no effect, 10 complete control
[15] = Rate 500 g/ha, Postemergence, scale 0 to 10, 0 no effect, 10 complete control
[16] = Rate 62 g/ha, headed Pre-emergence (flood test species), scale 0 to 10 (0 no effect, 10 complete control)
[17] = Rate 125 g/ha, Pre-emergence, flood test species, scale 0 to 10 where 0 is no effect and 10 is complete control
[18] = Rate 500 g/ha, headed Pre-emergence (flood test species), scale 0 to 10 (0 no effect, 10 complete control)
[19] = Preemergence, Rate 62 g/ha, scale of 0 to 10 where 0 is no effect and 10 is complete control
[20] = Preemergence, Rate 125 g/ha, scale of 0 to 10 where 0 is no effect and 10 is complete control
[21] = Preemergence, Rate 250 g/ha, scale 0 to 10 (0 no effect, 10 complete control)
[22] = Preemergence, Rate 500 g/ha, scale of 0 to 10 where 0 is no effect and 10 is complete control
[23] = Postemergence, Rate 500 g/ha, scale of 0 to 10 where 0 is no effect and 10 is complete control
[24] = Rate 125 g/ha, Postemergence, scale 0 to 10

COc1ccccc1Cn1c(=O)on(C(=O)N(c2ccc(F)cc2)C(C)C)c1=O [Compound 143]
Sugarbeets plant response rating (sugar beet; [1]): 6
Sugarbeets plant response rating (sugar beet; [2]): 0
Sugarbeets plant response rating (0 to 10 scale) (sugar beet; [3]): 1
Sugarbeets plant response rating (sugar beet; [4]): 3
Sugarbeets plant response rating (sugar beet; [5]): 9
Sugarbeets plant response rating (sugar beet; [6]): 1
Plant response rating, Sugarbeets (sugar beet; [7]): 6
Sugarbeets plant response rating (sugar beet; [8]): 6
Corn plant response rating (corn; [1]): 0
Corn plant response rating (corn; [2]): 0
Corn plant response rating (0 to 10 scale) (corn; [3]): 0
Corn plant response rating (corn; [4]): 0
Corn plant response rating (corn; [5]): 0
Corn plant response rating (corn; [6]): 0
Plant response rating, Corn (corn; [7]): 0
Corn plant response rating (corn; [8]): 0
Rape plant response rating (rape; [1]): 0
Rape plant response rating (rape; [2]): 0
Rape plant response rating (0 to 10 scale) (rape; [3]): 3
Rape plant response rating (rape; [4]): 4
Rape plant response rating (rape; [5]): 6
Rape plant response rating (rape; [6]): 0
Plant response rating, Rape (rape; [7]): 0
Rape plant response rating (rape; [8]): 3
Ducksalad plant response rating (duck salad; Postemergence (flood test species), Rate 125 g/ha, scale of 0 to 10 where 0 is no effect and 10 is complete control): 0
Ducksalad plant response rating (duck salad; Rate 62 g/ha, Postemergence section, flood test species, scale of 0 to 10 where 0 is no effect and 10 is complete control): 0
Plant response rating, Ducksalad (duck salad; Rate 250 g/ha, Postemergence (flood test), scale 0 to 10, 0 is no effect, 10 is complete control): 0
Ducksalad plant response rating (duck salad; Rate 500 g/ha, listed under Postemergence (flood test species), scale 0 to 10): 5

Cc1cccc(C)c1-n1c(=O)on(C(=O)N(Cc2ccccc2)C(C)C)c1=O [Compound 69]
Sugarbeets plant response rating (sugar beet; [9]): 0
Sugarbeets plant response rating (sugar beet; [10]): 0
Sugarbeets plant response rating (sugar beet; [2]): 0
Plant response rating, Sugarbeets (sugar beet; [11]): 0
Plant response rating, Sugarbeets (sugar beet; [12]): 0
Sugarbeets plant response rating (sugar beet; [13]): 0
Sugarbeets plant response rating (sugar beet; [14]): 0
Sugarbeets plant response rating (sugar beet; [15]): 0
Corn plant response rating (corn; [9]): 0
Corn plant response rating (corn; [10]): 0
Corn plant response rating (corn; [2]): 0
Plant response rating, Corn (corn; [11]): 0
Plant response rating, Corn (corn; [12]): 0
Corn plant response rating (corn; [13]): 0
Corn plant response rating (corn; [14]): 0
Corn plant response rating (corn; [15]): 0
Rape plant response rating (rape; [9]): 0
Rape plant response rating (rape; [10]): 0
Rape plant response rating (rape; [2]): 0
Plant response rating, Rape (rape; [11]): 0
Plant response rating, Rape (rape; [12]): 0
Rape plant response rating (rape; [13]): 0
Rape plant response rating (rape; [14]): 0
Rape plant response rating (rape; [15]): 0
Ducksalad plant response rating (duck salad; [16]): 0
Ducksalad plant response rating (duck salad; [17]): 0
Ducksalad plant response rating (duck salad; Rate 250 g/ha, headed Pre-emergence (flood test species), scale 0 to 10 (0 no effect, 10 complete control)): 0
Plant response rating, Ducksalad (duck salad; [18]): 0

CC(C)N(C(=O)n1oc(=O)n(Cc2nnc(Cl)s2)c1=O)c1ccc(F)cc1 [Compound 646]
Plant response rating, Sugarbeets (sugar beet; [9]): 0
Sugarbeets plant response rating (sugar beet; [1]): 0
Sugarbeets plant response rating (sugar beet; [19]): 0
Sugarbeets plant response rating (sugar beet; [20]): 0
Plant response rating, Sugarbeets (sugar beet; [21]): 0
Plant response rating, Sugarbeets (sugar beet; [22]): 0
Plant response rating, Corn (corn; [9]): 0
Corn plant response rating (corn; [1]): 0
Corn plant response rating (corn; Postemergence, Rate 250 g/ha, scale of 0 to 10, 0 is no effect, 10 is complete control): 0
Plant response rating, Corn (corn; [23]): 0
Corn plant response rating (corn; [19]): 0
Corn plant response rating (corn; [20]): 0
Plant response rating, Corn (corn; [21]): 0
Plant response rating, Corn (corn; [22]): 0
Plant response rating, Rape (rape; [9]): 0
Rape plant response rating (rape; [1]): 0
Plant response rating, Rape (rape; [23]): 0
Rape plant response rating (rape; [19]): 0
Rape plant response rating (rape; [20]): 0
Plant response rating, Rape (rape; [21]): 0
Plant response rating, Rape (rape; [22]): 0
Plant response rating, Ducksalad (0 to 10 scale, 0 is no effect, 10 is complete control) (duck salad; Rate 62 g/ha, flood test species, Pre-emergence, visual evaluation after twelve to sixteen days): 0
Ducksalad plant response rating (0 to 10 scale, 0 is no effect, 10 is complete control) (duck salad; Rate 125 g/ha, under heading Pre-emergence, flood test species, visual evaluation after twelve to sixteen days): 0
Ducksalad plant response rating (duck salad; Rate 250 g/ha, Pre-emergence (flood test species), scale 0 to 10, 0 is no effect, 10 is complete control): 0
Ducksalad plant response rating (duck salad; Rate 500 g/ha, Pre-emergence section of Table B, 0 to 10 scale (0 no effect, 10 complete control)): 0

CCN(C(=O)n1oc(=O)n(C(C)C)c1=O)c1nncs1 [Compound 190]
Sugarbeets plant response rating (sugar beet; [19]): 0
Sugarbeets plant response rating (0 to 10 scale) (sugar beet; [3]): 0
Sugarbeets plant response rating (sugar beet; [4]): 0
Sugarbeets plant response rating (sugar beet; [5]): 0
Sugarbeets plant response rating (sugar beet; [6]): 0
Sugarbeets plant response rating (sugar beet; [24]): 0
Plant response rating (0 to 10; 0 is no effect, 10 is complete control), Sugarbeets (sugar beet; Rate 250 g/ha, Postemergence): 0
Sugarbeets plant response rating (sugar beet; [8]): 0
Corn plant response rating (corn; [19]): 0
Corn plant response rating (0 to 10 scale) (corn; [3]): 0
Corn plant response rating (corn; [4]): 0
Corn plant response rating (corn; [5]): 0
Corn plant response rating (corn; [6]): 0
Corn plant response rating (corn; [24]): 0
Plant response rating (0 to 10; 0 is no effect, 10 is complete control), Corn (corn; Rate 250 g/ha, Postemergence): 0
Corn plant response rating (corn; [8]): 0
Rape plant response rating (rape; [19]): 0
Rape plant response rating (0 to 10 scale) (rape; [3]): 0
Rape plant response rating (rape; [4]): 0
Rape plant response rating (rape; [5]): 0
Rape plant response rating (rape; [6]): 0
Rape plant response rating (rape; [24]): 0
Plant response rating (0 to 10; 0 is no effect, 10 is complete control), Rape (rape; Rate 250 g/ha, Postemergence): 0
Rape plant response rating (rape; [8]): 0
Ducksalad plant response rating (duck salad; [16]): 0
Ducksalad plant response rating (duck salad; [17]): 0
Ducksalad plant response rating (duck salad; Rate 250 g/ha, Pre-emergence, flood-test species, scale 0 to 10, 0 is no effect, 10 is complete control): 0
Plant response rating, Ducksalad (duck salad; [18]): 0
